US20020035998A1, “Method for treatment of cancer and infectious disease” (priority 1995, published 2002)

Columns and labels:
[1] = tested on: Daudi target cells; experiment: NK cell cytotoxicity (NKCC), 6-hour 51Cr-release assay against Daudi target cells; type: cell-based, human; settings: for NKCC after treatment with Medium: no IFN; for potency and effect in intensifying baseline NKCC and restoring the NK cell's response to IFN-α: compared with serotonin, Table 4; for influence on the effect of serotonin on NKCC: ketanserin and ondansetron in equimolar concentrations; for NKCC (Cell Lysis %) ± SEM after treatment with IFN / NKCC (Cell Lysis %) ± SEM after treatment with Ran + IFN / NKCC (Cell Lysis %) ± SEM after treatment with Ran: Percoll fraction 8; for NKCC (Cell Lysis %) ± SEM after treatment with Ran + IFN: agonist 10^−4 M plus ranitidine 10^−4 M plus IFN-α 25 U/ml; for NKCC (Cell Lysis %) ± SEM after treatment with Ran: agonist 10^−4 M plus ranitidine 10^−4 M
From the text: (§1) MNC were obtained from peripheral venous blood from healthy human blood donors by Ficoll-Hypaque centrifuging, followed by Percoll density-gradient fractionation (Timonen and Saksela, 1980, J. Immunol. Methods 36, 285-291; Hellstrand and Hermodsson, 1990, Scand. J. Immunol. 31, 631-645).
(§2) The target cells used in these experiments were K562, an NK-cell sensitive erythroleukemic cell line, or Daudi, a relatively NK-insensitive EBV-transformed B-cell lymphoblastoid cell line.
(§3) The NKCC was determined six times as the specific ^51Cr-release for a NMNC: target-cell ratio of between 30:1 and 3.8:1 in two-fold dilution gradients. The suspensions of MNC/target cells were incubated in microplates at 37° C. for 6 hours (Daudi) or 16 hours (K562). The supernatant solution was then collected and examined for radioactivity in a gamma counter. The maximum ^51Cr-release was measured in target cell cultures treated with Triton X-100. The NKCC was calculated as the cell lysis % by the formula 100×(experimental release−spontaneous release/maximum release−spontaneous release)=cell lysis %.
(§4) In the results shown in Table 2, MNC from five different donors were used. All compounds were added to mixtures of MNC and target cells at the start of a 6 h (Daudi) or 16 h (K562) effecter and target cell incubation. The effecter cells were obtained from Percoll fractions 7-8, containing 33-55% monocytes.
In the experiment shown in Table 3, culture medium (control), histamine (10^−4 M), dimaprit (10^−4 M), ranitidine (ran) (10^−4 M) and/or IFN-α (25 U/ml) were added at the start of a 6-hour ^51Cr release assay using Daudi target cells. The data are representative of three similar experiments. NKCC is given as mean cell lysis %±SEM of six determinations. The effecter cells were recovered from a low-density Percoll fraction 8, containing around 40% monocytes.
In the experiment shown in Table 4, culture medium (control), serotonin, 8-OH-DPAT (+)-ALK and/or IFN-α (25 U/ml) were added at the start of a 6-hour ^51Cr-release assay against Daudi target cells. The NKCC is given as cell lysis %±SEM of six determinations. The effector cells were recovered from the low-density Percoll fraction 7, containing around 36% monocytes.

[2] = tested on: K562 target cells; experiment: NK cell cytotoxicity (NKCC), 16-hour 51Cr-release assay against K562 target cells; type: cell-based, human; settings: for cytotoxicity against K562 in the NK cell-concentrated lymphocyte fraction: eluted lymphocytes without monocytes, 16-hour assay; for basal cytotoxicity of lymphocytes in mixtures of monocytes and lymphocytes / monocyte induced inhibition of the NK cell response to IFN-α: mixtures of eluted monocytes and NK cell-enriched lymphocytes; for NK cell cytotoxicity (NKCC) after treatment: serotonin 10^−4 M and/or IFN-α 25 U/ml, 16 h, 10^4 K562, mean ± SEM of six
From the text: as §1, §2, §3
A low-density Percoll fraction was separated by counterflow centrifuge elusion (CCE) in a monocyte and in a lymphocyte fraction. The monocyte fraction was concentrated to >90% purity whereupon the contaminating cells consisted of large lymphocytes. The lymphocyte fractions obtained by CCE contained <3% monocytes, determined by morphology and Leu-M3 (CD14) antigen expression. The lymphocytes were […], […] , CD3^+/16^−/56^− T cells (45-50%), CD3^+/16^+/56^+ cells (1-5%), determined by flow cytometry.
J The eluted monocytes and/or the NK cell-concentrated low-density lymphocytes were treated with IFN-α and histamine/serotonin. The compounds were added, separately or in combination, to mixtures of MNC and K562 target cells at the start of a 16-hour ^51Cr-release assay. The cytotoxicity against K562 in the NK cell-concentrated lymphocyte fraction was increased by IFN-α and unaffected by histamine or serotonin. […] The addition of eluted monocytes to the NK cell concentrated lymphocytes suppressed the baseline cytotoxicity to K562.
In the experiments reported in Table 1, eluted lymphocytes were mixed with monocytes as shown in the table, in a total volume of 150 μl. The data are NKCC (mean ±SEM) of six determinations. Serotonin 10^−4 M and/or IFN-α (25 U/ml) was added at the start of a 16-hour microcytotoxicity test against 10^4 K562 target cells.
as §4
Cells from the monocyte-containing Percoll fraction 8 were incubated with culture medium, histamine (10^−4 M) or serotonin (10^−4 M) in the presence of IFN-α (0-100 U/ml). The data shown are NKCC (cell lysis %; mean±SEM of six determinations). The compounds were added at the start of a 16 h microcytotoxicity test against K 562 target cells.

[3] = named agent(s) only, no further additive: histamine, dimaprit, ranitidine 10^−4 M, IFN-α 25 U/ml, Daudi 6 h, Percoll fraction 8, around 40% monocytes
[4] = agonist 10^−4 M plus IFN-α 25 U/ml, Daudi 6 h, Percoll fraction 7
[5] = agonist 10^−4 M, Daudi 6 h, Percoll fraction 7, around 36% monocytes
[6] = agonist 10^−4 M plus IFN-α 25 U/ml, Daudi 6 h

SMILES: CNC(=C[N+](=O)[O-])NCCSCc1ccc(CN(C)C)o1 [Ran, ranitidine, reference compound]
- NKCC (cell lysis % ± SEM) [1, 3]: 0.0 ± 0.1%

SMILES: CCCN(CCC)[C@H]1CCc2cccc(O)c2[C@H]1C (relative stereo) [(+)-ALK-3, cis-8-hydroxy-1-methyl-2-(di-n-propylamino)tetralin, reference compound]
- NKCC after treatment with IFN [1, 4]: 40.4 ± 1%
- NKCC after treatment with Medium [1, 5]: 9.1 ± 1%
- potency and effect in intensifying baseline NKCC and restoring the NK cell's response to IFN-α [1]: comparable to that of serotonin

SMILES: Cc1nccn1CC1CCc2c(c3ccccc3n2C)C1=O (stereo not drawn) [ondansetron, reference compound]
- influence on the effect of serotonin on NKCC ([1]; ranitidine 10^−4 M): did not influence the effect of serotonin

SMILES: CN(C)CCCSC(=N)N [Dimaprit, dimaprit, reference compound]
- NKCC (Cell Lysis %) ± SEM after treatment with IFN [1, 6]: 32.6 ± 1%
- NKCC (Cell Lysis %) ± SEM after treatment with Ran + IFN ([1]; Daudi 6 h): 0.5 ± 0.5%
- NKCC (Cell Lysis %) ± SEM after treatment with Ran ([1]; Daudi 6 h): 0.4 ± 0.4%
- NKCC (cell lysis % ± SEM) [1, 3]: 6.4 ± 1%
- effect of histamine on monocyte-induced suppression of resting and IFN-α-activated NK cells: influence of the agent ([1]; simultaneous treatment, Table 3): imitated

SMILES: CCCN(CCC)C1CCc2cccc(O)c2C1 (stereo not drawn) [8-OH-DPAT, 8-hydroxy-2-(di-n-propylamino)tetralin, reference compound]
- NKCC after treatment with IFN [1, 4]: 43.3 ± 1%
- NKCC after treatment with Medium [1, 5]: 8.8 ± 1%
- potency and effect in intensifying baseline NKCC and restoring the NK cell's response to IFN-α [1]: comparable to that of serotonin

SMILES: NCCc1c[nH]cn1 [Histamine, histamine]
- NKCC (cell lysis % ± SEM) ([2]; Exp 1, K562, 15:1, histamine 10^−4 M plus IFN 25 U/ml): 76.4 ± 3%
- NKCC (cell lysis % ± SEM) ([2]; Exp 1, K562, 15:1, histamine 10^−5 M plus IFN 25 U/ml): 74.1 ± 1%
- NKCC (cell lysis % ± SEM) ([2]; Exp 1, K562, 15:1, histamine 10^−5 M, medium (no IFN)): 54.7 ± 1%
- NKCC (cell lysis % ± SEM) ([2]; Exp 1, K562, 15:1, histamine 10^−6 M plus IFN 25 U/ml): 66.0 ± 2%
- NKCC (cell lysis % ± SEM) ([2]; Exp 1, K562, 15:1, histamine 10^−6 M, medium (no IFN)): 39.2 ± 1%
- NKCC (cell lysis % ± SEM) ([2]; Exp 1, K562, MNC/target 15:1, histamine 10^−4 M, medium (no IFN), monocyte-containing Percoll fractions 7-8): 55.5 ± 1%
- NKCC (cell lysis % ± SEM) ([2]; Exp 2, K562, 15:1, histamine 10^−4 M plus IFN 25 U/ml): 67.9 ± 2%
- NKCC (cell lysis % ± SEM) ([2]; Exp 2, K562, 15:1, histamine 10^−4 M, medium (no IFN)): 32.4 ± 1%
- NKCC (cell lysis % ± SEM) ([2]; Exp 2, K562, 15:1, histamine 10^−5 M plus IFN 25 U/ml): 66.2 ± 1%
- NKCC (cell lysis % ± SEM) ([2]; Exp 2, K562, 15:1, histamine 10^−5 M, medium (no IFN)): 27.4 ± 1%
- NKCC (cell lysis % ± SEM) ([2]; Exp 2, K562, 15:1, histamine 10^−6 M plus IFN 25 U/ml): 55.4 ± 1%
- NKCC (cell lysis % ± SEM) ([2]; Exp 2, K562, 15:1, histamine 10^−6 M, medium (no IFN)): 23.2 ± 2%
- NKCC (cell lysis % ± SEM) ([2]; Exp 3, K562, 15:1, histamine 10^−4 M plus IFN 25 U/ml): 71.9 ± 1%
- NKCC (cell lysis % ± SEM) ([2]; Exp 3, K562, 15:1, histamine 10^−4 M, medium (no IFN)): 43.3 ± 1%
- NKCC (cell lysis % ± SEM) ([2]; Exp 3, K562, 15:1, histamine 10^−5 M plus IFN 25 U/ml): 66.5 ± 2%
- NKCC (cell lysis % ± SEM) ([2]; Exp 3, K562, 15:1, histamine 10^−5 M, medium (no IFN)): 38.6 ± 1%
- NKCC (cell lysis % ± SEM) ([2]; Exp 3, K562, 15:1, histamine 10^−6 M plus IFN 25 U/ml): 56.3 ± 2%
- NKCC (cell lysis % ± SEM) ([2]; Exp 3, K562, 15:1, histamine 10^−6 M, medium (no IFN)): 29.4 ± 1%
- cytotoxicity against K562 in the NK cell-concentrated lymphocyte fraction [2]: unaffected
- basal cytotoxicity of lymphocytes in mixtures of monocytes and lymphocytes [2]: restored
- monocyte induced inhibition of the NK cell response to IFN-α [2]: eliminated
- NKCC (cell lysis % ± SEM) ([1]; Exp 4, Daudi, 30:1, histamine 10^−4 M plus IFN 25 U/ml): 31.7 ± 1%
- NKCC (cell lysis % ± SEM) ([1]; Exp 4, Daudi, 30:1, histamine 10^−5 M plus IFN 25 U/ml): 28.3 ± 1%
- NKCC (cell lysis % ± SEM) ([1]; Exp 4, Daudi, 30:1, histamine 10^−5 M, medium (no IFN)): 3.5 ± 2%
- NKCC (cell lysis % ± SEM) ([1]; Exp 4, Daudi, 30:1, histamine 10^−6 M plus IFN 25 U/ml): 14.1 ± 1%
- NKCC (cell lysis % ± SEM) ([1]; Exp 4, Daudi, 30:1, histamine 10^−6 M, medium (no IFN)): 1.1 ± 0.3%
- NKCC (cell lysis % ± SEM) ([1]; Exp 4, Daudi, MNC/target 30:1, histamine 10^−4 M, medium (no IFN)): 4.4 ± 1%
- NKCC (cell lysis % ± SEM) ([1]; Exp 5, Daudi, 30:1, histamine 10^−4 M plus IFN 25 U/ml): 61.3 ± 3%
- NKCC (cell lysis % ± SEM) ([1]; Exp 5, Daudi, 30:1, histamine 10^−4 M, medium (no IFN)): 13.5 ± 1%
- NKCC (cell lysis % ± SEM) ([1]; Exp 5, Daudi, 30:1, histamine 10^−5 M plus IFN 25 U/ml): 52.3 ± 2%
- NKCC (cell lysis % ± SEM) ([1]; Exp 5, Daudi, 30:1, histamine 10^−5 M, medium (no IFN)): 9.7 ± 1%
- NKCC (cell lysis % ± SEM) ([1]; Exp 5, Daudi, 30:1, histamine 10^−6 M plus IFN 25 U/ml): 31.7 ± 1%
- NKCC (cell lysis % ± SEM) ([1]; Exp 5, Daudi, 30:1, histamine 10^−6 M, medium (no IFN)): 2.5 ± 1%
- NKCC (Cell Lysis %) ± SEM after treatment with IFN [1, 6]: 31.7 ± 0.3%
- NKCC (Cell Lysis %) ± SEM after treatment with Ran + IFN ([1]; Daudi 6 h): 1.6 ± 0.2%
- NKCC (Cell Lysis %) ± SEM after treatment with Ran ([1]; Daudi 6 h): 1.5 ± 0.3%
- NKCC (cell lysis % ± SEM) [1, 3]: 9.4 ± 0.3%

SMILES: NCCc1c[nH]c2ccc(O)cc12 [Serotonin, serotonin]
- cytotoxicity against K562 in the NK cell-concentrated lymphocyte fraction [2]: unaffected
- basal cytotoxicity of lymphocytes in mixtures of monocytes and lymphocytes [2]: restored
- monocyte induced inhibition of the NK cell response to IFN-α [2]: eliminated
- NK cell cytotoxicity (NKCC) after treatment ([2]; monocytes 0, lymphocytes 12 (×10^−4)): 34 ± 3%
- NK cell cytotoxicity (NKCC) after treatment ([2]; monocytes 6, lymphocytes 12 (×10^−4)): 31 ± 2%
- NK cell cytotoxicity (NKCC) after treatment ([2]; monocytes 12, lymphocytes 12 (×10^−4)): 31 ± 2%
- NKCC after treatment with IFN [1, 4]: 44.3 ± 1%
- NKCC after treatment with Medium [1, 5]: 10.4 ± 1%
- NKCC after treatment with IFN ([1]; agonist 10^−5 M plus IFN-α 25 U/ml, Daudi 6 h, Percoll fraction 7): 33.2 ± 1%
- NKCC after treatment with Medium ([1]; agonist 10^−5 M, Daudi 6 h, Percoll fraction 7): 4.5 ± 0.3%
- NKCC after treatment with IFN ([1]; agonist 10^−6 M plus IFN-α 25 U/ml, Daudi 6 h, Percoll fraction 7): 12.3 ± 1%
- NKCC after treatment with Medium ([1]; agonist 10^−6 M, Daudi 6 h, Percoll fraction 7): 2.2 ± 0.4%

SMILES: O=C(c1ccc(F)cc1)C1CCN(CCn2c(=O)[nH]c3ccccc3c2=O)CC1 [Ketanserin, reference compound]
- influence on the effect of serotonin on NKCC ([1]; ranitidine 10^−4 M): did not influence the effect of serotonin
